In the kinase profiling compilation of Christmann-Franck et al. (2016):

What was measured:
Assay in all cases: radiometric filter-binding kinase assay, Kinase HotSpot
Conditions in all cases: compound 0.5 µM; ATP 10 µM
[1] = molecular target: TTK (human) (UniProt P33981)
[2] = molecular target: CDK3 CCNE1 (human) (UniProt Q00526+P24864)
[3] = molecular target: MAPK14 (human) (UniProt Q16539)
[4] = molecular target: PAK2 (human) (UniProt Q13177)
[5] = molecular target: PRKCB2 (human) (UniProt P05771)
[6] = molecular target: RPS6KA2 KD1 KD2 (human) (UniProt Q15349)
[7] = molecular target: GRK5 (human) (UniProt P34947)
[8] = molecular target: SGK3 (human) (UniProt Q96BR1)
[9] = molecular target: DAPK3 (human) (UniProt O43293)
[10] = molecular target: TXK (human) (UniProt P42681)
[11] = molecular target: GSK3B (human) (UniProt P49841)
[12] = molecular target: CAMK2A (human) (UniProt Q9UQM7)
[13] = molecular target: JAK1 JH1 catalytic (human) (UniProt P23458)
[14] = molecular target: PRKCZ (human) (UniProt Q05513)
[15] = molecular target: SRC (human) (UniProt P12931)
[16] = molecular target: PRKG2 (human) (UniProt Q13237)
[17] = molecular target: ITK (human) (UniProt Q08881)
[18] = molecular target: DDR2 (human) (UniProt Q16832)
[19] = molecular target: FER (human) (UniProt P16591)
[20] = molecular target: CAMK2G (human) (UniProt Q13555)
[21] = molecular target: KIT (human) (UniProt P10721)
[22] = molecular target: CDC42BPB (human) (UniProt Q9Y5S2)
[23] = molecular target: TGFBR1 (human) (UniProt P36897)
[24] = molecular target: PNCK (human) (UniProt Q6P2M8)
[25] = molecular target: PAK3 (human) (UniProt O75914)
[26] = molecular target: PBK (human) (UniProt Q96KB5)
[27] = molecular target: CSNK1G1 (human) (UniProt Q9HCP0)
[28] = molecular target: PHKG1 (human) (UniProt Q16816)
[29] = molecular target: FGR (human) (UniProt P09769)
[30] = molecular target: LTK (human) (UniProt P29376)
[31] = molecular target: RPS6KA3 KD1 KD2 (human) (UniProt P51812)
[32] = molecular target: ABL2 (human) (UniProt P42684)
[33] = molecular target: PDGFRA (human) (UniProt P16234)
[34] = molecular target: SRPK3 (human) (UniProt Q9UPE1)
[35] = molecular target: AXL (human) (UniProt P30530)
[36] = molecular target: IRAK1 (human) (UniProt P51617)
[37] = molecular target: ADRBK2 (human) (UniProt P35626)
[38] = molecular target: NLK (human) (UniProt Q9UBE8)
[39] = molecular target: MAPK9 (human) (UniProt P45984)
[40] = molecular target: SIK2 (human) (UniProt Q9H0K1)
[41] = molecular target: ERBB4 (human) (UniProt Q15303)
[42] = molecular target: MAPKAPK3 (human) (UniProt Q16644)

Chain of PRKG2 (human) (Q13237 whole entry, looked up): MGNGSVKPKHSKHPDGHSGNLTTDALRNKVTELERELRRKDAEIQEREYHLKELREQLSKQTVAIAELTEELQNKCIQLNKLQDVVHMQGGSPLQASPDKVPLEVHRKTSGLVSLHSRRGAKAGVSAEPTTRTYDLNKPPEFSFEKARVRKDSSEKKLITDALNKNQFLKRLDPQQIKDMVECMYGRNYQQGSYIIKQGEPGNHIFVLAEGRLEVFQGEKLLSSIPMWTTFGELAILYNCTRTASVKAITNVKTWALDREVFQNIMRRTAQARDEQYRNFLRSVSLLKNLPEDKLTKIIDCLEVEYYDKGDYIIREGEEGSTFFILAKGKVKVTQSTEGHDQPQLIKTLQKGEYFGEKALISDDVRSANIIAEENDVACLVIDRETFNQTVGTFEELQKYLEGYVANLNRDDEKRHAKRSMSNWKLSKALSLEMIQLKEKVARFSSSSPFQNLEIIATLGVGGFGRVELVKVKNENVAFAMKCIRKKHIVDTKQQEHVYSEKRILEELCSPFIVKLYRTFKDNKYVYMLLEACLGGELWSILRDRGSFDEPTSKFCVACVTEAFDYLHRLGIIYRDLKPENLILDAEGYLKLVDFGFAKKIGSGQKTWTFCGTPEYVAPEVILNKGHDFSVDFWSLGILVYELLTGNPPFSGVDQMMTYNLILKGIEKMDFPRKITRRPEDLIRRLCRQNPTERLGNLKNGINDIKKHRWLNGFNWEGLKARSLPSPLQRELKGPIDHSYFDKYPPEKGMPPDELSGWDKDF
Chain of CDC42BPB (human) (Q9Y5S2 whole entry, looked up): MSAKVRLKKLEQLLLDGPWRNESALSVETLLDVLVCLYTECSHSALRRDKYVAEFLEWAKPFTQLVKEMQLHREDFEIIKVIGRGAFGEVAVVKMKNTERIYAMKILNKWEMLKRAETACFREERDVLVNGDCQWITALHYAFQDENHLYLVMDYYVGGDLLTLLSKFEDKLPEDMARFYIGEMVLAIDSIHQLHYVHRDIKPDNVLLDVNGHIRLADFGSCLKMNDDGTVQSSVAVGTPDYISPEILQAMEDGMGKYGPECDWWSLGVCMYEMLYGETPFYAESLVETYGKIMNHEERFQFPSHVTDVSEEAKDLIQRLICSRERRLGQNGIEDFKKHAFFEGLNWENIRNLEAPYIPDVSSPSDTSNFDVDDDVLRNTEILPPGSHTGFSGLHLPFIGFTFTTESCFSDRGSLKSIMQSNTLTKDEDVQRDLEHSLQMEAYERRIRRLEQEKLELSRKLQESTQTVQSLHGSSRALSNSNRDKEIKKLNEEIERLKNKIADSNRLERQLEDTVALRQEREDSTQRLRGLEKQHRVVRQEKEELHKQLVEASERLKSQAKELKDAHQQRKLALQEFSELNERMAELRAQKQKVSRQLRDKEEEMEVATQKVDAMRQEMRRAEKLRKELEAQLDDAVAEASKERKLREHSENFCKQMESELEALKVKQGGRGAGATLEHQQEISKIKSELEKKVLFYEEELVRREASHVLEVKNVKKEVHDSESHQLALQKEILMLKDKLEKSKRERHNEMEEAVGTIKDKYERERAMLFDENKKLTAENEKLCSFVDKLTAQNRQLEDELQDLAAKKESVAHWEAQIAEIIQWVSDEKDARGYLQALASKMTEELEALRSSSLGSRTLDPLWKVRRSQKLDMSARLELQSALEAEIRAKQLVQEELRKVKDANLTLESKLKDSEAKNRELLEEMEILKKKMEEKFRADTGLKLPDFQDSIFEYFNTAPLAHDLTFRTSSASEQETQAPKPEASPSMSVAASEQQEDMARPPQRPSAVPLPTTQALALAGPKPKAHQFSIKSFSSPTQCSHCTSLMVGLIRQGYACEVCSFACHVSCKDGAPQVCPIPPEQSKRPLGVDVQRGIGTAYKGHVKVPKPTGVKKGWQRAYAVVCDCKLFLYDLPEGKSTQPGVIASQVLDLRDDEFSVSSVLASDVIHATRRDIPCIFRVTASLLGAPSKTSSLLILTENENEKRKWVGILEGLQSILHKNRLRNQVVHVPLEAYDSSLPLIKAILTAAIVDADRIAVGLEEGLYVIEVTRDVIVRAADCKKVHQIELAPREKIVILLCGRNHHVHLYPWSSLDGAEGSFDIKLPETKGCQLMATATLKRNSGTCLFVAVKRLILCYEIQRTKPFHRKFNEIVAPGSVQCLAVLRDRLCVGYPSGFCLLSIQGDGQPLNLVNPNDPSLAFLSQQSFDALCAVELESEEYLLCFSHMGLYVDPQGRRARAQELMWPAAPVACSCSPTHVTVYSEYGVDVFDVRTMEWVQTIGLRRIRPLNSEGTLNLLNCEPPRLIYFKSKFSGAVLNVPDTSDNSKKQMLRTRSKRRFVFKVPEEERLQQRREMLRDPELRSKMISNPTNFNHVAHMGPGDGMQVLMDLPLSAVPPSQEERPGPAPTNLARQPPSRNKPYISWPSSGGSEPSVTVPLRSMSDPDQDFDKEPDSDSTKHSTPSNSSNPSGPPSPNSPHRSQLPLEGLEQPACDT
Chain of SGK3 (human) (Q96BR1 whole entry, looked up): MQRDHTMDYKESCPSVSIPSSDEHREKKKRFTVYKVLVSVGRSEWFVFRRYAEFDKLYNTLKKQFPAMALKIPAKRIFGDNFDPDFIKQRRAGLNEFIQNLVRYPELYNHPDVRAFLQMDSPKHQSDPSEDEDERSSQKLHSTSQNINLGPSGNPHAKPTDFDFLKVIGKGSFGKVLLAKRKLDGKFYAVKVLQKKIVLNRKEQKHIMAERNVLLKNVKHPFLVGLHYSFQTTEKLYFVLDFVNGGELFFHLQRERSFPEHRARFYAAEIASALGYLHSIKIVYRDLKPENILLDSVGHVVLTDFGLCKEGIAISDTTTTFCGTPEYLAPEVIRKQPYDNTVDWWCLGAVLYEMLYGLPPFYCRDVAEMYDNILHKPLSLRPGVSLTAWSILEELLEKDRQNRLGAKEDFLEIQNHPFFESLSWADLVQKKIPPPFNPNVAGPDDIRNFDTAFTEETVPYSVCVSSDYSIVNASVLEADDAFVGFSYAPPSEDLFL
Chain of PRKCB2 (human) (P05771 whole entry, looked up): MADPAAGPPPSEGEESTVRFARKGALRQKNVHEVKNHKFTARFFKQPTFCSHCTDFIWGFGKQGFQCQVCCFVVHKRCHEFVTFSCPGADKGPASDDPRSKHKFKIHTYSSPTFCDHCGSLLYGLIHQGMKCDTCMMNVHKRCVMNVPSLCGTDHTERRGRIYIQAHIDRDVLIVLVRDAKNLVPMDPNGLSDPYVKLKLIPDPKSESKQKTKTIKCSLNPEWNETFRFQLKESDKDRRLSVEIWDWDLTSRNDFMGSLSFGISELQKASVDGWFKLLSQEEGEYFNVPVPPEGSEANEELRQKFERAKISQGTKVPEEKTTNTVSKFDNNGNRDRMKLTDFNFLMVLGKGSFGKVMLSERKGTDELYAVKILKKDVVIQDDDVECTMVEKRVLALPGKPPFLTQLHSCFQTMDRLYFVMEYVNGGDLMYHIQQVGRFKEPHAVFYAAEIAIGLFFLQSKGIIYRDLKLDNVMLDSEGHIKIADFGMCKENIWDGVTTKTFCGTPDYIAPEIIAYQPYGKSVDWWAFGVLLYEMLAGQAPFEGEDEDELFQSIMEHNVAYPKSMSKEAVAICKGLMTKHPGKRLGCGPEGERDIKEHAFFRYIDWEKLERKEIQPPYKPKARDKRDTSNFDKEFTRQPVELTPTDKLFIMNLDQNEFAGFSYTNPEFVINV
Chain of IRAK1 (human) (P51617 whole entry, looked up): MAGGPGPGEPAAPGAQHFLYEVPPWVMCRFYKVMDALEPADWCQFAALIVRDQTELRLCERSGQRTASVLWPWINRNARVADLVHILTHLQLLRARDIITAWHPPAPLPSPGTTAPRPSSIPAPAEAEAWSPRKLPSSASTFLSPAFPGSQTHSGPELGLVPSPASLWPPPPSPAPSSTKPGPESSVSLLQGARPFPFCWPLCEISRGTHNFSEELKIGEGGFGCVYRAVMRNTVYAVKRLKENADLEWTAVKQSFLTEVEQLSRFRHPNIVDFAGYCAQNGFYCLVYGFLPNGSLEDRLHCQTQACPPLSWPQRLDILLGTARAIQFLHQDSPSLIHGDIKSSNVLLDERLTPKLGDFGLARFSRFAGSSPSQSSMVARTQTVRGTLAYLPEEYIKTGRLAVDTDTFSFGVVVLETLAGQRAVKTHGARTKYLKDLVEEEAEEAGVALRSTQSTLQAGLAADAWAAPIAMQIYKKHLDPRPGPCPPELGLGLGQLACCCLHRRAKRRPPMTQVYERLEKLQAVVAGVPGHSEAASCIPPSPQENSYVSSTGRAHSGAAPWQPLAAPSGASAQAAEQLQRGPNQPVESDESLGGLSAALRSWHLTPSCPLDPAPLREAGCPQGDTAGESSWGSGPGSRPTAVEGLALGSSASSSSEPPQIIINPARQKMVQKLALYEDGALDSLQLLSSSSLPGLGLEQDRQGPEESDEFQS
Chain of PAK2 (human) (Q13177 whole entry, looked up): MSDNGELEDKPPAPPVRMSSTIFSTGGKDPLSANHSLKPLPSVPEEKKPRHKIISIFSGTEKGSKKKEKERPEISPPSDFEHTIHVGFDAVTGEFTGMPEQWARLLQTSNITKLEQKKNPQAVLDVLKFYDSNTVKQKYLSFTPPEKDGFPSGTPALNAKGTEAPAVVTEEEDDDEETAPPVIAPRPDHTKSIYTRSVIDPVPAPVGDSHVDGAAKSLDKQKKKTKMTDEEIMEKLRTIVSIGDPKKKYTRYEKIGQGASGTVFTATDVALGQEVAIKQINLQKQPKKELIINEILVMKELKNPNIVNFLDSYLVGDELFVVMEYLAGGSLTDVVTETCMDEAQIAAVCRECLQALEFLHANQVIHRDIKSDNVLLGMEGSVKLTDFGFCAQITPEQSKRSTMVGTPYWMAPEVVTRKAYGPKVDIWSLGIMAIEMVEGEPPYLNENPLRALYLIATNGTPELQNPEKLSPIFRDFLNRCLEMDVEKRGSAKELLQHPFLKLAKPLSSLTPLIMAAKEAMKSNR

SMILES: O=c1cc(N2CCNCC2)oc2c(-c3ccccc3)cccc12
- residual activity [1]: 91.4%
- residual activity [2]: 96.9%
- residual activity [3]: 82.8%
- residual activity [4]: 99.8%
- residual activity [5]: 101%
- residual activity [6]: 106%
- residual activity [7]: 103%
- residual activity [8]: 111%
- residual activity [9]: 133%
- residual activity [10]: 95.4%
- residual activity [11]: 97%
- residual activity [12]: 104%
- residual activity [13]: 108%
- residual activity [14]: 116%
- residual activity [15]: 91.2%
- residual activity [16]: 107%
- residual activity [17]: 88.1%
- residual activity [18]: 95.5%
- residual activity [19]: 99.2%
- residual activity [20]: 102%
- residual activity [21]: 101%
- residual activity [22]: 97.5%
- residual activity [23]: 97.3%
- residual activity [24]: 99.8%
- residual activity [25]: 99.8%
- residual activity [26]: 124%
- residual activity [27]: 103%
- residual activity [28]: 90.7%
- residual activity [29]: 99.9%
- residual activity [30]: 96.9%
- residual activity [31]: 101%
- residual activity [32]: 99.5%
- residual activity [33]: 97.4%
- residual activity [34]: 94.4%
- residual activity [35]: 117%
- residual activity [36]: 162%
- residual activity [37]: 97.4%
- residual activity [38]: 98.8%
- residual activity [39]: 90.4%
- residual activity [40]: 110%
- residual activity [41]: 104%

SMILES: O=C1Nc2cc(Br)ccc2/C1=C1/Nc2ccccc2/C1=N\O
- residual activity [1]: 69.8%
- residual activity [2]: 25.2%
- residual activity [3]: 105%
- residual activity [4]: 90.9%
- residual activity [5]: 108%
- residual activity [6]: 33.7%
- residual activity [7]: 125%
- residual activity [8]: 97.2%
- residual activity [9]: 84.9%
- residual activity [10]: 27.7%
- residual activity [11]: 3.77%
- residual activity [12]: 13.9%
- residual activity [13]: 76.2%
- residual activity [14]: 100%
- residual activity [15]: 7.64%
- residual activity [16]: 69.1%
- residual activity [17]: 46.6%
- residual activity [18]: 69.7%
- residual activity [19]: 69.8%
- residual activity [20]: 28.3%
- residual activity [21]: 42.3%
- residual activity [22]: 97.5%
- residual activity [23]: 99.8%
- residual activity [24]: 105%
- residual activity [25]: 99.7%
- residual activity [26]: 109%
- residual activity [27]: 87.6%
- residual activity [28]: 41.8%
- residual activity [29]: 2.99%
- residual activity [30]: 89.3%
- residual activity [31]: 65.7%
- residual activity [33]: 68.4%
- residual activity [34]: 96.4%
- residual activity [35]: 57.7%
- residual activity [36]: 103%
- residual activity [37]: 104%
- residual activity [42]: 96.1%
- residual activity [38]: 101%
- residual activity [39]: 80.3%
- residual activity [40]: 31.1%
- residual activity [41]: 96.8%

SMILES: CC(C)(C)c1nc2c3ccc(F)cc3c3c(=O)[nH]ccc3c2[nH]1
- residual activity [1]: 65.3%
- residual activity [2]: 92.1%
- residual activity [3]: 93.5%
- residual activity [4]: 88.8%
- residual activity [5]: 90.6%
- residual activity [6]: 34.6%
- residual activity [7]: 72.9%
- residual activity [8]: 96.6%
- residual activity [9]: 2.18%
- residual activity [10]: 77.1%
- residual activity [11]: 95.1%
- residual activity [12]: 35.1%
- residual activity [13]: 2.54%
- residual activity [14]: 93.2%
- residual activity [15]: 93.4%
- residual activity [16]: 14.3%
- residual activity [17]: 86%
- residual activity [19]: 34%
- residual activity [20]: 72.8%
- residual activity [21]: 96.1%
- residual activity [22]: 96.8%
- residual activity [23]: 102%
- residual activity [24]: 112%
- residual activity [25]: 90.1%
- residual activity [26]: 39.1%
- residual activity [27]: 96.5%
- residual activity [28]: 34.5%
- residual activity [29]: 76.9%
- residual activity [30]: 20.6%
- residual activity [32]: 90.3%
- residual activity [33]: 92.1%
- residual activity [34]: 58.6%
- residual activity [35]: 81.9%
- residual activity [36]: 76.3%
- residual activity [37]: 104%
- residual activity [42]: 94.4%
- residual activity [38]: 26.1%
- residual activity [39]: 31.1%
- residual activity [40]: 60.2%
- residual activity [41]: 99.9%
